For this assay, the system named is L1210 leukemia ip in BDF1 mice, survival T/C. In words: NCI In Vivo Anticancer Drug Screen. Data for tumor model L1210 Leukemia (intraperitoneal) in B6D2F1 (BDF1) mice. The note with it: endpoint: mean survival time, higher = longer survival. A digest of the protocol: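 Value reflects the ratio of survival in compound-treated mice to survival in vehicle-treated controls, with both groups carrying the same transplanted tumor.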

Inconclusive results and toxic doses are left out.

For `C=C1CC2(CCC3(CC2)OCCO3)OC1=O`, the T/C reads like this: (dose: 100.0 mg/kg/injection, schedule: Q01DX001 (ip), vehicle: saline with Tween-80) 95 % of control; (dose: 200.0 mg/kg/injection, schedule: Q01DX001 (ip), vehicle: saline with Tween-80) 95 % of control; (dose: 400.0 mg/kg/injection, schedule: Q01DX001 (ip), vehicle: saline with Tween-80) 98 % of control.
Consider `COC1OC2COC(c3ccccc3)OC2C(OC(C)=O)C1OC(C)=O` (stereo not given), for which the T/C by setting is: (dose: 100.0 mg/kg/injection, schedule: Q04DX002 (ip), vehicle: Klucel (hydroxypropylcellulose) (HPC)) 95 % of control; (dose: 200.0 mg/kg/injection, schedule: Q04DX002 (ip), vehicle: Klucel (hydroxypropylcellulose) (HPC)) 117 % of control; (dose: 400.0 mg/kg/injection, schedule: Q04DX002 (ip), vehicle: Klucel (hydroxypropylcellulose) (HPC)) 120 % of control.
As for `CN=C(NC)c1ccc(NC(=O)c2ccc(C(=O)Nc3ccc(C(=NC)NC)c(OC)c3)c(Cl)c2)cc1OC`, the T/C (dose: 1.26 mg/kg/injection, schedule: Q01DX Z (ip), vehicle: saline) is 98 % of control.
As to `OC(CNc1ccc(Cl)cc1)CN1CCOCC1` (stereo not given), the T/C runs as follows: (dose: 100.0 mg/kg/injection, schedule: Q04DX003 (ip), vehicle: saline) 96 % of control; (dose: 200.0 mg/kg/injection, schedule: Q04DX003 (ip), vehicle: saline) 89 % of control.
Turning to `O=[N+]([O-])CC(C[N+](=O)[O-])C(F)(F)C(F)(F)C(F)(F)F`, for the setting “dose: 100.0 mg/kg/injection, schedule: Q01DX001 (ip), vehicle: other”, the T/C was 101 % of control.

The record behind these values is PubChem BioAssay AID248 (DTP/NCI, 2004).
